Reference: patent publication US11608335B2, “Somatostatin modulators and uses thereof” (CRINETICS PHARMACEUTICALS, INC., priority 2018, dated 2023)

biological target: human somatostatin receptor subtype 5 (Homo sapiens, UniProt P35346); experiment: cAMP assay for SST5R (inhibition of cAMP via human SST5 receptor)
Sequence (P35346 whole entry): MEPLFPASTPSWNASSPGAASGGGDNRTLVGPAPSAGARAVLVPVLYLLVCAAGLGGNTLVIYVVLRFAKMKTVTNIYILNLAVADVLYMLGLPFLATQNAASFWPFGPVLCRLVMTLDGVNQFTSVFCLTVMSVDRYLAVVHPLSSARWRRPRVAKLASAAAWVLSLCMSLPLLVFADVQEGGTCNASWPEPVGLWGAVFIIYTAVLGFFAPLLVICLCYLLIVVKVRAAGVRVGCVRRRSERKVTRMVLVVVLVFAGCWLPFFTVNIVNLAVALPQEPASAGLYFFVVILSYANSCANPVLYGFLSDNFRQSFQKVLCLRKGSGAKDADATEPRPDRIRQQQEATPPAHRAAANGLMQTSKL

SMILES | EC50 [nM]
Cc1cccc2nc(-c3cncc(-c4ccc(Cl)c(C#N)c4)c3N3CC[C@H](N)C3)[nH]c12 [Compound 2-98, 5-{4-[(3S)-3-aminopyrrolidin-1-yl]-5-(4-methyl-1H-1,3-benzodiazol-2-yl)pyridin-3-yl}-2-chlorobenzonitrile] | < 10
N#Cc1cccc(-c2cncc(-c3nc4c(C(=O)O)cccc4[nH]3)c2N2CC[C@H](N)C2)c1 [Compound 2-82, 2-{4-[(3S)-3-aminopyrrolidin-1-yl]-5-(3-cyanophenyl)pyridin-3-yl}-1H-1,3-benzodiazole-4-carboxylic acid] | > 1000
NCC1CN(c2c(-c3nc4cc(F)cc(F)c4[nH]3)cncc2-c2cccc(Cl)c2F)C1 [Compound 1-57, 1-{1-[3-(3-chloro-2-fluorophenyl)-5-(4,6-difluoro-1H-1,3-benzodiazol-2-yl)pyridin-4-yl]azetidin-3-yl}methanamine] | 10 to 100
Cn1c(-c2cncc(-c3cccc(C#N)c3)c2N2CC[C@H](N)C2)nc2c(F)cccc21 [Compound 2-74, 3-{4-[(3S)-3-aminopyrrolidin-1-yl]-5-(4-fluoro-1-methyl-1H-1,3-benzodiazol-2-yl)pyridin-3-yl}benzonitrile] | < 10
Cc1cccc(-c2cncc(-c3nc4c(F)cc(F)cc4[nH]3)c2N2CC(CN)C2)c1 [Compound 1-29, 1-{1-[3-(4,6-difluoro-1H-1,3-benzodiazol-2-yl)-5-(3-methylphenyl)pyridin-4-yl]azetidin-3-yl}methanamine] | < 10
N#Cc1ccc(-c2cncc(-c3nc4c(F)cccc4[nH]3)c2N2CC[C@H](N)C2)cc1F [Compound 2-35, 4-{4-[(3S)-3-aminopyrrolidin-1-yl]-5-(4-fluoro-1H-1,3-benzodiazol-2-yl)pyridin-3-yl}-2-fluorobenzonitrile] | 10 to 100
N#Cc1cccc(-c2cncc(-c3nc4c(F)cc(F)cc4[nH]3)c2N2CC(CN)C2)c1 [Compound 1-54, 3-{4-[3-(aminomethyl)azetidin-1-yl]-5-(4,6-difluoro-1H-1,3-benzodiazol-2-yl)pyridin-3-yl}benzonitrile] | < 10
Cc1ccccc1-c1cncc(-c2nc3cc(F)cc(F)c3[nH]2)c1N1CC(CN)C1 [Compound 1-30, 1-{1-[3-(4,6-difluoro-1H-1,3-benzodiazol-2-yl)-5-(2-methylphenyl)pyridin-4-yl]azetidin-3-yl}methanamine] | 10 to 100
N#Cc1cc(-c2cncc(-c3nc4cccc(C#N)c4[nH]3)c2N2CC[C@H](N)C2)ccc1F [Compound 2-158, 2-{4-[(3S)-3-aminopyrrolidin-1-yl]-5-(3-cyano-4-fluorophenyl)pyridin-3-yl}-1H-1,3-benzodiazole-4-carbonitrile] | < 10
Cc1cccc2c1nc(-c1cncc(-c3ccnc(C#N)c3)c1N1CC[C@](C)(N)C1)n2C [Compound 2-152, 4-[(3S)-3-amino-3-methylpyrrolidin-1-yl]-5-(1,4-dimethyl-1H-1,3-benzodiazol-2-yl)-[3,4′-bipyridine]-2′-carbonitrile] | < 10
Cc1cccc2nc(-c3cncc(-c4cccc(C(N)=O)c4F)c3N3CCC(C)(N)C3)[nH]c12 (stereo not drawn) [Compound 2-138, 3-[4-(3-amino-3-methylpyrrolidin-1-yl)-5-(4-methyl-1H-1,3-benzodiazol-2-yl)pyridin-3-yl]-2-fluorobenzamide] | < 10
N[C@H]1CCN(c2c(-c3cc(O)cc(F)c3)cncc2-c2nc3cccc(F)c3[nH]2)C1 [Compound 2-25, 3-{4-[(3S)-3-aminopyrrolidin-1-yl]-5-(4-fluoro-1H-1,3-benzodiazol-2-yl)pyridin-3-yl}-5-fluorophenol] | 10 to 100
N#Cc1cc(F)cc(-c2cncc(-c3nc4ccc(F)c(F)c4[nH]3)c2N2CC[C@H](N)C2)c1 [Compound 2-99, 3-{4-[(3S)-3-aminopyrrolidin-1-yl]-5-(4,5-difluoro-1H-1,3-benzodiazol-2-yl)pyridin-3-yl}-5-fluorobenzonitrile] | < 10
Cc1cc(-c2cncc(-c3nc4cc(F)cc(F)c4[nH]3)c2N2CC(CN)C2)ccc1F [Compound 1-47, 1-{1-[3-(4,6-difluoro-1H-1,3-benzodiazol-2-yl)-5-(4-fluoro-3-methylphenyl)pyridin-4-yl]azetidin-3-yl}methanamine] | < 10
N#Cc1cccc(-c2cncc(-c3nc4cccc(F)c4[nH]3)c2N2C[C@@H](N)[C@@H](O)C2)c1 (racemic) [Compound 2-68, 3-{4-[cis-3-amino-4-hydroxypyrrolidin-1-yl]-5-(4-fluoro-1H-1,3-benzodiazol-2-yl)pyridin-3-yl}benzonitrile] | 10 to 100
NCC1CN(c2c(-c3nc4c(F)cc(F)cc4[nH]3)cncc2-c2ccccc2F)C1 [Compound 1-44, 1-{1-[3-(4,6-difluoro-1H-1,3-benzodiazol-2-yl)-5-(2-fluorophenyl)pyridin-4-yl]azetidin-3-yl}methanamine] | 100 to 1000
N#Cc1cc(F)cc(-c2cncc(-c3nc4cccc(F)c4[nH]3)c2N2C[C@@H](N)C[C@@H]2CO)c1 [Compound 2-66, 3-{4-[(2R,4S)-4-amino-2-(hydroxymethyl)pyrrolidin-1-yl]-5-(4-fluoro-1H-1,3-benzodiazol-2-yl)pyridin-3-yl}-5-fluorobenzonitrile] | 100 to 1000
N#Cc1ccc2nc(-c3cncc(-c4cc(F)cc(Cl)c4)c3N3CC[C@H](N)C3)[nH]c2c1 [Compound 2-103, 2-{4-[(3S)-3-aminopyrrolidin-1-yl]-5-(3-chloro-5-fluorophenyl)pyridin-3-yl}-1H-1,3-benzodiazole-5-carbonitrile] | 10 to 100
N#Cc1cc(F)cc(-c2cncc(-c3nc4cc(F)cc(F)c4[nH]3)c2N2CC(CN)C2)c1 [Compound 1-34, 3-{4-[3-(aminomethyl)azetidin-1-yl]-5-(4,6-difluoro-1H-1,3-benzodiazol-2-yl)pyridin-3-yl}-5-fluorobenzonitrile] | < 10
Cc1cc(F)cc(-c2cncc(-c3nc4cc(F)cc(F)c4[nH]3)c2N2CC(O)(CN)C2)c1 [Compound 1-26, 3-(aminomethyl)-1-[3-(4,6-difluoro-1H-1,3-benzodiazol-2-yl)-5-(3-fluoro-5-methylphenyl)pyridin-4-yl]azetidin-3-ol] | 100 to 1000
Cc1cc(F)cc(-c2cncc(-c3nc4c(F)cc(F)cc4[nH]3)c2N2CC(C)(CN)C2)c1 [Compound 1-50, 1-{1-[3-(4,6-difluoro-1H-1,3-benzodiazol-2-yl)-5-(3-fluoro-5-methylphenyl)pyridin-4-yl]-3-methylazetidin-3-yl}methanamine] | < 10
NCC1(F)CN(c2c(-c3cc(F)cc(Cl)c3)cncc2-c2nc3cc(F)cc(F)c3[nH]2)C1 [Compound 1-62, 1-{1-[3-(3-chloro-5-fluorophenyl)-5-(4,6-difluoro-1H-1,3-benzodiazol-2-yl)pyridin-4-yl]-3-fluoroazetidin-3-yl}methanamine] | < 10
Cc1cccc2nc(-c3cncc(-c4cc(F)cc(C(N)=O)c4)c3N3CCC(C)(N)C3)[nH]c12 (stereo not drawn) [Compound 2-118, 3-[4-(3-amino-3-methylpyrrolidin-1-yl)-5-(4-methyl-1H-1,3-benzodiazol-2-yl)pyridin-3-yl]-5-fluorobenzamide] | < 10
Cc1cc(F)cc(-c2cncc(-c3nc4cnccc4[nH]3)c2N2CC(CN)C2)c1 [Compound 1-22, 1-{1-[3-(3-fluoro-5-methylphenyl)-5-{3H-imidazo[4,5-c]pyridin-2-yl}pyridin-4-yl]azetidin-3-yl}methanamine] | 100 to 1000
